According to patent US20090163515A1, “Compounds Which Bind to the Active Site of Protein Kinase Enzymes” (Biofocus Discovery Ltd., priority 2003, published 2009):

system: ROK; assay: ROK activity assay; assay type: biochemical; parameters: key: +: active; ++: more active; +++: very active; conditions: assays conducted at 1-100 μM

Row | Compound | ROK activity
1 | CN(C)CCNC(=O)c1cccc(-c2cncc(Nc3ccc4ccccc4c3)c2)c1 [N-(2-Dimethylamino-ethyl)-3-[5-(naphthalen-2-ylamino)-pyridin-3-yl]-benzamide] | +
2 | NC(=O)c1cccc(-c2cncc(NCc3cccc(OC(F)(F)F)c3)c2)c1 [3-[5-(3-Trifluoromethoxy-benzylamino)-pyridin-3-yl]-benzamide] | ++
3 | COc1ccc(Nc2cncc(-c3cccc(C(N)=O)c3)c2)cc1 [3-[5-(4-Methoxy-phenylamino)-pyridin-3-yl]-benzamide] | +
4 | Oc1ccc(-c2cncc(NCc3ccoc3)c2)cc1 [4-{5-[(Furan-3-ylmethyl)-amino]-pyridin-3-yl}-phenol] | ++
5 | Oc1cccc(Nc2cncc(-c3ccncc3)c2)c1 [3-([3,4′]Bipyridinyl-5-ylamino)-phenol] | ++
6 | NC(=O)c1cccc(-c2cncc(NCc3ccc(Cl)c(Cl)c3)c2)c1 [3-[5-(3,4-Dichloro-benzylamino)-pyridin-3-yl]-benzamide] | ++
7 | NC(=O)c1cccc(-c2cncc(NCc3ccc(F)c(F)c3)c2)c1 [3-[5-(3,4-Difluoro-benzylamino)-pyridin-3-yl]-benzamide] | ++
8 | c1cc(-c2cncc(NCC3CCCN3)c2)ccn1 (stereo not shown) [[3,4′]Bipyridinyl-5-yl-pyrrolidin-2-ylmethyl-amine] | +
9 | FC(F)(F)Oc1cccc(CNc2cncc(-c3ccncc3)c2)c1 [[3,4′]Bipyridinyl-5-yl-(3-trifluoromethoxy-benzyl)-amine] | ++
10 | Oc1cccc(-c2cncc(Nc3ccc(Cl)cc3)c2)c1 [3-[5-(4-Chloro-phenylamino)-pyridin-3-yl]-phenol] | +
11 | Oc1cccc(CNc2cncc(-c3ccncc3)c2)c1 [3-([3,4′]Bipyridinyl-5-ylaminomethyl)-phenol] | ++
12 | c1cc(-c2cncc(NCc3ccoc3)c2)ccn1 [[3,4′]Bipyridinyl-5-yl-furan-3-ylmethyl-amine] | ++
13 | NC(=O)c1cccc(-c2cncc(NCc3cccc(O)c3)c2)c1 [3-[5-(3-Hydroxy-benzylamino)-pyridin-3-yl]-benzamide] | +++
14 | Oc1ccc(-c2cncc(NCC3CCCCC3)c2)cc1 [4-[5-(Cyclohexylmethyl-amino)-pyridin-3-yl]-phenol] | +
15 | Fc1cc(CNc2cncc(-c3ccncc3)c2)ccc1Cl [[3,4′]Bipyridinyl-5-yl-(4-chloro-3-fluoro-benzyl)-amine] | +++
16 | COc1cncc(-c2cncc(NCc3cccc(O)c3)c2)c1 [3-[(5′-Methoxy-[3,3′]bipyridinyl-5-ylamino)-methyl]-phenol] | +
17 | CN(Cc1cccc(O)c1)c1cncc(-c2ccc(O)cc2)c1 [4-{5-[(3-hydroxy-benzyl)-methyl-amino]-pyridin-3-yl}-phenol] | +
18 | Clc1cccc(CNc2cncc(-c3ccncc3)c2)c1 [[3,4′]Bipyridinyl-5-yl-(3-chloro-benzyl)-amine] | ++
19 | FC(F)(F)Oc1ccc(-c2cnc(NCCc3ccncc3)cn2)cc1 [(2-Pyridin-4-yl-ethyl)-[5-(4-trifluoromethoxy-phenyl)-pyrazin-2-yl]-amine] | ++
20 | NC(=O)c1ccc(-c2cncc(NCc3cccc(O)c3)c2)cc1 [4-[5-(3-Hydroxy-benzylamino)-pyridin-3-yl]-benzamide] | +++

Row | Compound | ROK activity
21 | NC(=O)c1cccc(-c2cncc(NCC3CCCCC3)c2)c1 [3-[5-(Cyclohexylmethyl-amino)-pyridin-3-yl]-benzamide] | +
22 | Fc1ccc(-c2cnc(NCCc3ccncc3)cn2)cc1Cl [[5-(3-Chloro-4-fluoro-phenyl)-pyrazin-2-yl]-(2-pyridin-4-yl-ethyl)-amine] | +
23 | Oc1cccc(CNc2cncc(-c3ccc4c(c3)OCO4)c2)c1 [3-[(5-Benzo[1,3]dioxol-5-yl-pyridin-3-ylamino)-methyl]-phenol] | ++
24 | c1ccc2oc(-c3cnc(NCCc4ccncc4)cn3)cc2c1 [(5-Benzofuran-2-yl-pyrazin-2-yl)-(2-pyridin-4-yl-ethyl)-amine] | ++
25 | Nc1ccc(C(=O)Nc2ccc(Nc3cnc(-c4ccncc4Cl)cn3)cc2)cc1 [4-Amino-N-{4-[5-(3-chloro-pyridin-4-yl)-pyrazin-2-ylamino]-phenyl}-benzamide] | ++
26 | Oc1ccc(-c2cncc(NCc3ccc4c(c3)OCO4)c2)cc1 [4-{5-[(Benzo[1,3]dioxol-5-ylmethyl)-amino]-pyridin-3-yl}-phenol] | ++
27 | OCc1ccc(-c2cncc(NCc3cccc(O)c3)c2)cc1 [3-{[5-(4-Hydroxymethyl-phenyl)-pyridin-3-ylamino]-methyl}-phenol] | +
28 | Nc1cccc(-c2cncc(NCc3cccc(O)c3)c2)c1 [3-{[5-(3-Amino-phenyl)-pyridin-3-ylamino]-methyl}-phenol] | +
29 | Oc1cccc(CNc2cncc(-c3cc[nH]n3)c2)c1 [3-{[5-(1H-Pyrazol-3-yl)-pyridin-3-ylamino]-methyl}-phenol] | ++
30 | COc1ccc(-c2cnc(NCCc3ccncc3)cn2)cc1OC [[5-(3,4-Dimethoxy-phenyl)-pyrazin-2-yl]-(2-pyridin-4-yl-ethyl)-amine] | ++
31 | CC(C)C(CO)Nc1cnc(-c2ccncc2)cn1 (stereo not shown) [3-Methyl-2-(5-pyridin-4-yl-pyrazin-2-ylamino)-butan-1-ol] | +
32 | NC(=O)c1cccc(-c2cncc(NCc3ccc4c(c3)OCO4)c2)c1 [3-{5-[(Benzo[1,3]dioxol-5-ylmethyl)-amino]-pyridin-3-yl}-benzamide] | +
33 | Clc1cccc(Nc2cncc(-c3ccncc3)c2)c1 [[3,4′]Bipyridinyl-5-yl-(3-chloro-phenyl)-amine] | ++
34 | NC(=O)c1cccc(-c2cncc(NCc3cccnc3)c2)c1 [3-{5-[(Pyridin-3-ylmethyl)-amino]-pyridin-3-yl}-benzamide] | +
35 | Oc1ccc(-c2cnc(NCCc3ccncc3)cn2)cc1 [4-[5-(2-Pyridin-4-yl-ethylamino)-pyrazin-2-yl]-phenol] | +
36 | Oc1ccc(-c2cncc(NCc3cccc(Cl)c3)c2)cc1 [4-[5-(3-Chloro-benzylamino)-pyridin-3-yl]-phenol] | ++
37 | NC(=O)c1cccc(-c2cncc(NCC3CCCN3)c2)c1 (stereo not shown) [3-{5-[(Pyrrolidin-2-ylmethyl)-amino]-pyridin-3-yl}-benzamide] | +
38 | NC(=O)c1cccc(-c2cncc(Nc3cccc(Br)c3)c2)c1 [3-[5-(3-Bromo-phenylamino)-pyridin3-yl]-benzamide] | +
39 | O=[N+]([O-])c1cccc(Nc2cncc(-c3ccncc3)c2)c1 [[3,4′]Bipyridinyl-5-yl-(3-nitro-phenyl)-amine] | ++
40 | c1ccc2sc(-c3cnc(NCCc4ccncc4)cn3)cc2c1 [(5-Benzo[b]thiophen-2-yl-pyrazin-2-yl)-(2-pyridin-4-yl-ethyl)-amine] | ++

Row | Compound | ROK activity
41 | COc1ccc(CNc2cncc(-c3ccc(O)cc3)c2)cc1OC [4-[5-(3,4-Dimethoxy-benzylamino)-pyridin-3-yl]-phenol] | +
42 | CC(Nc1cnc(-c2ccc(O)cc2)cn1)c1ccccc1 (stereo not shown) [4-[5-(1-Phenyl-ethylamino)-pyrazin-2-yl]-phenol] | ++
43 | O=C(NCCO)c1cccc(-c2cnc(NCCc3ccncc3)cn2)c1 [N-(2-Hydroxy-ethyl)-3-[5-(2-pyridin-4-yl-ethylamino)-pyrazin-2-yl]-benzamide] | +
44 | Nc1ccc(-c2cncc(NCc3cccc(O)c3)c2)cc1 [3-{[5-(4-Amino-phenyl)-pyridin-3-ylamino]-methyl}-phenol] | +
45 | COc1ccc(-c2cnc(NCCc3ccncc3)cn2)cc1 [[5-(4-Methoxy-phenyl)-pyrazin-2-yl]-(2-pyridin-4-yl-ethyl)-amine] | ++
46 | c1csc(CNc2cnc(-c3ccncc3)cn2)c1 [(5-Pyridin-4-yl-pyrazin-2-yl)-thiophen-2-ylmethyl-amine] | ++
47 | Oc1ccc(-c2cncc(NCc3ccc4ccccc4c3)c2)cc1 [4-{5-[(Naphthalen-2-ylmethyl)-amino]-pyridin-3-yl}-phenol] | +
48 | OCc1ccc(-c2cnc(NCCc3ccncc3)cn2)cc1 [{4-[5-(2-Pyridin-4-yl-ethylamino)-pyrazin-2-yl]-phenyl}-methanol] | +
49 | Oc1ccc(-c2cncc(NCc3ccc(Cl)c(Cl)c3)c2)cc1 [4-[5-(3,4-Dichloro-benzylamino)-pyridin-3-yl]-phenol] | +
50 | c1ccc2cc(CNc3cncc(-c4ccncc4)c3)ccc2c1 [[3,4′]Bipyridinyl-5-yl-naphthalen-2-ylmethyl-amine] | ++
51 | O=C(NCCO)c1cccc(-c2cncc(NCc3cccc(O)c3)c2)c1 [3-[5-(3-Hydroxy-benzylamino)-pyridin-3-yl]-N-(2-hydroxy-ethyl)-benzamide] | ++
52 | FC(F)(F)Oc1cccc(-c2cnc(NCCc3ccncc3)cn2)c1 [(2-Pyridin-4-yl-ethyl)-[5-(3-trifluoromethoxy-phenyl)-pyrazin-2-yl]-amine] | ++
53 | Oc1cccc(CNc2cncc(-c3ccncc3Cl)c2)c1 [3-[(3′-Chloro-[3,4′]bipyridinyl-5-ylamino)-methyl]-phenol] | +++
54 | OCCC1CCCCN1c1cnc(-c2ccncc2)cn1 (stereo not shown) [2-[1-(5-Pyridin-4-yl-pyrazin-2-yl)-piperidin-2-yl]-ethanol] | +
55 | Oc1ccc(-c2cncc(NCc3ccc(Cl)cc3)c2)cc1 [4-[5-(4-Chloro-benzylamino)-pyridin-3-yl]-phenol] | ++
56 | c1cc(-c2cnc(NCc3ccc4c(c3)OCO4)cn2)ccn1 [Benzo[1,3]dioxol-5-ylmethyl-(5-pyridin-4-yl-pyrazin-2-yl)-amine] | ++
57 | COc1ccc(CNc2cncc(-c3cccc(C(N)=O)c3)c2)cc1 [3-[5-(4-Methoxy-benzylamino)-pyridin-3-yl]-benzamide] | +
58 | Oc1ccc(-c2cncc(NCC3CCCN3)c2)cc1 (stereo not shown) [4-{5-[(Pyrrolidin-2-ylmethyl)-amino]-pyridin-3-yl}-phenol] | ++
